Non-standard residues stand in square brackets, D forms with d. Residues, ends and D or L forms follow the SMILES beside them. No end group written: not given here. *: point of attachment. Phe(F5) = N[C@@H](Cc1c(F)c(F)c(F)c(F)c1F)C(=O)O; Desaminotyrosyl = O=C(CCc1ccc(O)cc1)*; NMeY = CN[C@@H](Cc1ccc(O)cc1)C(=O)O; Agmatine = N=C(N)NCCCCN*; NMeA = CN[C@@H](C)C(=O)O; Nle = CCCC[C@H](N)C(=O)O; Orn = NCCC[C@H](N)C(=O)O; Abu = CC[C@H](N)C(=O)O; Ava = NCCCCC(=O)O; GABA = NCCCC(=O)O
What was measured:
[1] = target: T1, GHRH receptor (human pituitary membrane homogenates) (Homo sapiens, UniProt Q02643); experiment: GHRH receptor binding, ligand competition with 125I-labeled JV-1-42 (Table 7); parameters: Normal human pituitaries were purchased from the National Hormone and Peptide Program; tissue National Hormone and Peptide Program (A. F. Parlow, Harbor-UCLA Medical Center, Torrance, Calif.); host or cells: normal human pituitary, membrane fraction / homogenate; conditions: JI-38 = 1
T1 sequence (Q02643 23-423): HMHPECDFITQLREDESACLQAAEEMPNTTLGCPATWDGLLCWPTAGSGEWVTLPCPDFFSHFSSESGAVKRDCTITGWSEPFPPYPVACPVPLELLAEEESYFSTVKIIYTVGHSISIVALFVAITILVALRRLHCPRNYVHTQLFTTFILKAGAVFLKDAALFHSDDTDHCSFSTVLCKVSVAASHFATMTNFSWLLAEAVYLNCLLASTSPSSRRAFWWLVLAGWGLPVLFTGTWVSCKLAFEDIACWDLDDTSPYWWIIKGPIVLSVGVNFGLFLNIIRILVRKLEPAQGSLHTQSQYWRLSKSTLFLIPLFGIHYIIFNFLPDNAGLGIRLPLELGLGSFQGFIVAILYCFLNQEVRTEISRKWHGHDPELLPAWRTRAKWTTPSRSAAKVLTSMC

[2] = system: GH level; experiment: In vivo endocrine activity (GH release), subcutaneous administration; conditions: rat; for GH releasing potency relative to JI-38 (=1): s.c. injection
Experimental: Subcutaneous Administration. Adult male rats were used and anesthetized with pentobarbital (6 mg/100 g, b.w.), by i.p. injection. […] Blood samples were taken from the jugular vein 5, 15 and/or 30 minutes after the injection. The blood samples were centrifuged, plasma was removed and the GH level was measured by ELISA. The results are summarized in terms of potency in Table 9.

Compound | Relative affinitiy (Binding potency) vs JI-38 [1] | Stimulation of growth hormone levels after s.c. administration (comparison in words) [2] | GH releasing potency relative to JI-38 (=1) ([2]; 15 min after) | GH releasing potency relative to JI-38 (=1) ([2]; 30 min after)
CCCC[C@H](NC(=O)[C@@H](NC(=O)[C@H](CC(=O)O)NC(=O)[C@H](CCC(N)=O)NC(=O)[C@H](CC(C)C)NC(=O)[C@H](CC(C)C)NC(=O)[C@H](CCCN)NC(=O)[C@H](CCCNC(=N)N)NC(=O)[C@H](C)NC(=O)[C@H](CO)NC(=O)[C@H](CC(C)C)NC(=O)[C@H](CCC(N)=O)NC(=O)[C@H](CC)NC(=O)[C@H](CC(C)C)NC(=O)[C@@H](NC(=O)[C@H](CCCN)NC(=O)[C@H](CCCNC(=N)N)NC(=O)[C@H](Cc1ccc(O)cc1)NC(=O)[C@H](CO)NC(=O)[C@H](CCC(N)=O)NC(=O)[C@@H](NC(=O)[C@H](Cc1ccccc1)NC(=O)[C@@H](NC(=O)[C@H](C)NC(=O)[C@H](CC(=O)O)NC(=O)[C@@H](C)NC(=O)[C@H](Cc1ccc(O)cc1)NC)[C@@H](C)CC)[C@@H](C)O)C(C)C)[C@@H](C)CC)C(=O)N[C@@H](CC(=O)O)C(=O)N[C@@H](CCCNC(=N)N)C(=O)NCCCCC(N)=O [Peptide P-22326, [N—Me-Tyr^1, D-Ala^2, Gln^8, Orn^12, Abu^15, Orn^21, Nle^27, Asp^28, Apa^30]hGHRH(1-30)NH2] (H-[NMeY][dA]DAIFTQSYR[Orn]VL[Abu]QLSAR[Orn]LLQDI[Nle]DR[Ava]-NH2) | 6.12 | stimulated greater growth hormone levels than hGHRH or JI-38 | – | –
[N—Me-Tyr^1, Gln^8, Orn^12, Abu^15, Orn^21, Nle^27, Agm^29]hGHRH(1-29) ([NMeY]ADAIFTQSYR[Orn]VL[Abu]QLSAR[Orn]LLQDI[Nle]S[Agmatine]) [Peptide P-20373] | – | – | 0.23 | 0.88
CCCC[C@H](NC(=O)[C@@H](NC(=O)[C@H](CC(=O)O)NC(=O)[C@H](CCC(N)=O)NC(=O)[C@H](CC(C)C)NC(=O)[C@H](CC(C)C)NC(=O)[C@H](CCCN)NC(=O)[C@H](CCCNC(=N)N)NC(=O)[C@H](C)NC(=O)[C@H](CO)NC(=O)[C@H](CC(C)C)NC(=O)[C@H](CCC(N)=O)NC(=O)[C@H](CC)NC(=O)[C@H](CC(C)C)NC(=O)[C@@H](NC(=O)[C@H](CCCN)NC(=O)[C@H](CCCNC(=N)N)NC(=O)[C@H](Cc1ccc(O)cc1)NC(=O)[C@H](CO)NC(=O)[C@H](C)N(C)C(=O)[C@@H](NC(=O)[C@H](Cc1ccccc1)NC(=O)[C@@H](NC(=O)[C@H](C)NC(=O)[C@H](CC(=O)O)NC(=O)[C@@H](C)NC(=O)CCc1ccc(O)cc1)[C@@H](C)CC)[C@@H](C)O)C(C)C)[C@@H](C)CC)C(=O)N[C@@H](CC(=O)O)C(=O)NCCCCNC(=N)N [Peptide P-20357, [Dat^1, D-Ala^2, N—Me-Ala^8, Orn^12, Abu^15, Orn^21, Nle^27, Asp^28, Agm^29]hGHRH(1-29)] (Desaminotyrosyl-[dA]DAIFT[NMeA]SYR[Orn]VL[Abu]QLSAR[Orn]LLQDI[Nle]D-Agmatine) | 5.06 | – | – | –
CCCC[C@H](NC(=O)[C@@H](NC(=O)[C@H](CC(=O)O)NC(=O)[C@H](CCC(N)=O)NC(=O)[C@H](CC(C)C)NC(=O)[C@H](CC(C)C)NC(=O)[C@H](CCCN)NC(=O)[C@H](CCCNC(=N)N)NC(=O)[C@H](C)NC(=O)[C@H](CO)NC(=O)[C@H](CC(C)C)NC(=O)[C@H](CCC(N)=O)NC(=O)[C@H](CC)NC(=O)[C@H](CC(C)C)NC(=O)[C@@H](NC(=O)[C@H](CCCN)NC(=O)[C@H](CCCNC(=N)N)NC(=O)[C@H](Cc1ccc(O)cc1)NC(=O)[C@H](CO)NC(=O)[C@H](CCC(N)=O)NC(=O)[C@@H](NC(=O)[C@H](Cc1ccccc1)NC(=O)[C@@H](NC(=O)[C@H](C)NC(=O)[C@H](CC(=O)O)NC(=O)[C@@H](C)NC(=O)[C@H](Cc1ccc(O)cc1)NC)[C@@H](C)CC)[C@@H](C)O)C(C)C)[C@@H](C)CC)C(=O)N[C@@H](CC(=O)O)C(=O)NCCCCNC(=N)N [Peptide P-20361, [N—Me-Tyr^1, D-Ala^2, Gln^8, Orn^12, Abu^15, Orn^21, Nle^27, Asp^28, Agm^29] hGHRH(1-29)] (H-[NMeY][dA]DAIFTQSYR[Orn]VL[Abu]QLSAR[Orn]LLQDI[Nle]D-Agmatine) | 5.30 | – | – | –

Continued, in another order:

Relative affinitiy (Binding potency) vs JI-38 [1] | Compound | Stimulation of growth hormone levels after s.c. administration (comparison in words) [2] | GH releasing potency relative to JI-38 (=1) ([2]; 15 min after) | GH releasing potency relative to JI-38 (=1) ([2]; 30 min after)
4.07 | CCCC[C@H](NC(=O)[C@@H](NC(=O)[C@H](CC(=O)O)NC(=O)[C@H](CCC(N)=O)NC(=O)[C@H](CC(C)C)NC(=O)[C@H](CC(C)C)NC(=O)[C@H](CCCN)NC(=O)[C@H](CCCNC(=N)N)NC(=O)[C@H](C)NC(=O)[C@H](CO)NC(=O)[C@H](CC(C)C)NC(=O)[C@H](CCC(N)=O)NC(=O)[C@H](CC)NC(=O)[C@H](CC(C)C)NC(=O)[C@@H](NC(=O)[C@H](CCCN)NC(=O)[C@H](CCCNC(=N)N)NC(=O)[C@H](Cc1ccc(O)cc1)NC(=O)[C@H](CO)NC(=O)[C@H](CC(N)=O)NC(=O)[C@@H](NC(=O)[C@H](Cc1ccccc1)NC(=O)[C@@H](NC(=O)[C@H](C)NC(=O)[C@H](CC(=O)O)NC(=O)[C@@H](C)NC(=O)[C@H](Cc1ccc(O)cc1)NC)[C@@H](C)CC)[C@@H](C)O)C(C)C)[C@@H](C)CC)C(=O)N[C@@H](CO)C(=O)N[C@@H](CCCNC(=N)N)C(=O)NCCCC(N)=O [Peptide P-25501, [N—Me-Tyr^1, D-Ala^2, Orn^12, Abu^15, Orn^21, Nle^27, Gab^30]hGHRH(1-30)NH2] (H-[NMeY][dA]DAIFTNSYR[Orn]VL[Abu]QLSAR[Orn]LLQDI[Nle]SR[GABA]-NH2) | stimulated greater growth hormone levels than hGHRH or JI-38 | – | –
5.00 | CCCC[C@H](NC(=O)[C@@H](NC(=O)[C@H](CC(=O)O)NC(=O)[C@H](CCC(N)=O)NC(=O)[C@H](CC(C)C)NC(=O)[C@H](CC(C)C)NC(=O)[C@H](CCCN)NC(=O)[C@H](CCCNC(=N)N)NC(=O)[C@H](C)NC(=O)[C@H](CO)NC(=O)[C@H](CC(C)C)NC(=O)[C@H](CCC(N)=O)NC(=O)[C@H](CC)NC(=O)[C@H](CC(C)C)NC(=O)[C@@H](NC(=O)[C@H](CCCN)NC(=O)[C@H](CCCNC(=N)N)NC(=O)[C@H](Cc1ccc(O)cc1)NC(=O)[C@H](CO)NC(=O)[C@H](CC(N)=O)NC(=O)[C@@H](NC(=O)[C@H](Cc1c(F)c(F)c(F)c(F)c1F)NC(=O)[C@@H](NC(=O)[C@H](C)NC(=O)[C@H](CC(=O)O)NC(=O)[C@@H](C)NC(=O)[C@H](Cc1ccc(O)cc1)NC)[C@@H](C)CC)[C@@H](C)O)C(C)C)[C@@H](C)CC)C(=O)N[C@@H](CC(=O)O)C(=O)N[C@@H](CCCNC(=N)N)C(=O)NC [Peptide P-27404, [N—Me-Tyr^1, D-Ala^2, Fpa5^6, Orn^12, Abu^15, Orn^21, Nle^27, Asp^28]hGHRH(1-29)NH—CH3] (H-[NMeY][dA]DAI[Phe(F5)]TNSYR[Orn]VL[Abu]QLSAR[Orn]LLQDI[Nle]DR-NHMe) | stimulated greater growth hormone levels than hGHRH or JI-38 | 2.07 | 1.47
4.10 | CCCC[C@H](NC(=O)[C@@H](NC(=O)[C@H](CC(=O)O)NC(=O)[C@H](CCC(N)=O)NC(=O)[C@H](CC(C)C)NC(=O)[C@H](CC(C)C)NC(=O)[C@H](CCCN)NC(=O)[C@H](CCCNC(=N)N)NC(=O)[C@H](C)NC(=O)[C@H](CO)NC(=O)[C@H](CC(C)C)NC(=O)[C@H](CCC(N)=O)NC(=O)[C@H](CC)NC(=O)[C@H](CC(C)C)NC(=O)[C@@H](NC(=O)[C@H](CCCN)NC(=O)[C@H](CCCNC(=N)N)NC(=O)[C@H](Cc1ccc(O)cc1)NC(=O)[C@H](CO)NC(=O)[C@H](CC(N)=O)NC(=O)[C@@H](NC(=O)[C@H](Cc1ccccc1)NC(=O)[C@@H](NC(=O)[C@H](C)NC(=O)[C@H](CC(=O)O)NC(=O)[C@@H](C)NC(=O)[C@H](Cc1ccc(O)cc1)NC)[C@@H](C)CC)[C@@H](C)O)C(C)C)[C@@H](C)CC)C(=O)N[C@@H](CC(=O)O)C(=O)N[C@@H](CCCNC(=N)N)C(=O)NC [Peptide P-27409, [N—Me-Tyr^1, D-Ala^2, Orn^12, Abu^15, Orn^21, Nle^27, Asp^28]hGHRH(1-29)NH—CH3] (H-[NMeY][dA]DAIFTNSYR[Orn]VL[Abu]QLSAR[Orn]LLQDI[Nle]DR-NHMe) | stimulated greater growth hormone levels than hGHRH or JI-38 | – | –
8.37 | CCCC[C@H](NC(=O)[C@@H](NC(=O)[C@H](CC(=O)O)NC(=O)[C@H](CCC(N)=O)NC(=O)[C@H](CC(C)C)NC(=O)[C@H](CC(C)C)NC(=O)[C@H](CCCN)NC(=O)[C@H](CCCNC(=N)N)NC(=O)[C@H](C)NC(=O)[C@H](CO)NC(=O)[C@H](CC(C)C)NC(=O)[C@H](CCC(N)=O)NC(=O)[C@H](CC)NC(=O)[C@H](CC(C)C)NC(=O)[C@@H](NC(=O)[C@H](CCCN)NC(=O)[C@H](CCCNC(=N)N)NC(=O)[C@H](Cc1ccc(O)cc1)NC(=O)[C@H](CO)NC(=O)[C@H](CCC(N)=O)NC(=O)[C@@H](NC(=O)[C@H](Cc1ccccc1)NC(=O)[C@@H](NC(=O)[C@H](C)NC(=O)[C@H](CC(=O)O)NC(=O)[C@@H](C)NC(=O)[C@H](Cc1ccc(O)cc1)NC)[C@@H](C)CC)[C@@H](C)O)C(C)C)[C@@H](C)CC)C(=O)N[C@@H](CC(=O)O)C(=O)N[C@@H](CCCNC(=N)N)C(=O)NCC [Peptide P-28420, [N—Me-Tyr^1, D-Ala^2, Gln^8, Orn^12, Abu^15, Orn^21, Nle^27, Asp^28]hGHRH(1-29)NH—CH2—CH3] (H-[NMeY][dA]DAIFTQSYR[Orn]VL[Abu]QLSAR[Orn]LLQDI[Nle]DR-NHEt) | – | – | –

— patent US9393271B2, “GHRH agonists for islet cell transplantation and function and the treatment of diabetes” (UNIVERSITY OF MIAMI, priority 2012, dated 2016)
